Laboratory results: US20120083522A1, “MODULATION OF INFLAMMATORY RESPONSES BY FACTOR XI” (Isis Pharmaceuitcals, inc., priority 2009, published 2012)

Key:
Type in all cases: in vivo
[1] = Tolerability in CD1 mice: body and organ weights (Example 21); conditions: 50 mg/kg s.c. twice per week for 6 weeks; for Body weight: increase over PBS control weight before start of treatment; for Kidney weight / Liver weight / Spleen weight: percentage of the body weight
Description: Body weight was measured at the onset of the study and subsequently twice per week. The body weights of the mice are presented in Table 87 and are expressed increase in grams over the PBS control weight taken before the start of treatment. Liver, spleen, and kidney weights were measured at the end of the study, and are also presented in Table 87 as percentage of the body weight.

[2] = Tolerability in CD1 mice: liver function (Example 21); set-up: Albumin: unit not given here; conditions: plasma, 50 mg/kg s.c. twice per week for 6 weeks
[3] = Tolerability in CD1 mice: kidney function (Example 21); conditions: plasma, 50 mg/kg s.c. twice per week for 6 weeks
[4] = Tolerability in CD1 mice: hematology assays (Example 21); conditions: 50 mg/kg s.c. twice per week for 6 weeks
[5] = Tolerability in Sprague-Dawley rats: body and organ weights (Example 23); conditions: 50 mg/kg s.c. twice per week for 6 weeks; for Body weight: increase over PBS control weight before start of treatment; for Kidney weight / Liver weight / Spleen weight: percentage of the body weight
[6] = Tolerability in Sprague-Dawley rats: liver function (Example 23); set-up: Albumin: unit not given here; conditions: plasma, 50 mg/kg s.c. twice per week for 6 weeks
[7] = Tolerability in Sprague-Dawley rats: kidney function (Example 23); conditions: for BUN: plasma; for Total urine protein / Urine protein/creatinine ratio: total urine samples
[8] = Tolerability in Sprague-Dawley rats: hematology assays (Example 23); set-up: RBC / WBC / Neutrophil / Lymphocyte / Platelets: unit not given here; conditions: blood

| Sequence | Body weight [1] [g] | Kidney weight [1] [%] | Liver weight [1] [%] | Spleen weight [1] [%] | ALT [2] [IU/L] | AST [2] [IU/L] | Albumin [2] | Bilirubin [2] [mg/dL] | Cholesterol [2] [mg/dL] | BUN [3] [mg/dL] | HCT [4] [%] | Hemoglobin [4] [g/dL] | Lymphocyte [4] [cells/μL] | Monocytes [4] [cells/μL] | Neutrophil [4] [cells/μL] | Platelets [4] | RBC [4] | WBC [4] | Body weight [5] [g] | Kidney weight [5] [%] | also measured |
| --- | --- | --- | --- | --- | --- | --- | --- | --- | --- | --- | --- | --- | --- | --- | --- | --- | --- | --- | --- | --- | --- |
| ACAGTTTCTGGCAGGCCTCG (antisense; all C 5-methyl, all phosphorothioate, sugars by position not given here; MOE gapmer, 5-10-5) [ISIS 412223, 5-10-5 MOE gapmer] | 12 | 1.5 | 6 | 0.4 | 60 | 125 | 3.0 | 0.20 | 117 | 28 | 48 | 15 | 4599 | 200 | 1756 | 862 10^3/μL | 9 10^6/μL | 7 10^3/μL | 126 | 1.0 | Liver weight [5]: 5%; Spleen weight [5]: 0.5%; ALT [6]: 85 IU/L; AST [6]: 180 IU/L; Albumin [6]: 5; Bilirubin [6]: 0.14 mg/dL; creatinine [7]: 46 mg/dL; BUN [7]: 24 mg/dL; Total urine protein [7]: 224 mg/dL; Urine protein/creatinine ratio [7]: 4.6; HCT [8]: 41%; Hemoglobin [8]: 13.1 g/dL; Lymphocyte [8]: 16990; Neutrophil [8]: 1826; Platelets [8]: 567; RBC [8]: 7.2; WBC [8]: 20 |
| GCAGCGGACGGCATTGGTGC (antisense; all C 5-methyl, all phosphorothioate, sugars by position not given here; MOE gapmer, 5-10-5) [ISIS 412225, 5-10-5 MOE gapmer] | 10 | 1.5 | 6 | 0.4 | 40 | 69 | 3.3 | 0.23 | 128 | 23 | 50 | 15 | 4969 | 293 | 1547 | 574 10^3/μL | 9 10^6/μL | 7 10^3/μL | 184 | 1.0 | Liver weight [5]: 4%; Spleen weight [5]: 0.5%; ALT [6]: 48 IU/L; AST [6]: 108 IU/L; Albumin [6]: 5; Bilirubin [6]: 0.15 mg/dL; creatinine [7]: 58 mg/dL; BUN [7]: 23 mg/dL; Total urine protein [7]: 209 mg/dL; Urine protein/creatinine ratio [7]: 4.0; HCT [8]: 42%; Hemoglobin [8]: 13.4 g/dL; Lymphocyte [8]: 13204; Neutrophil [8]: 1499; Platelets [8]: 673; RBC [8]: 7.4; WBC [8]: 15 |
| GCATTGGTGCACAGTTTCTG (antisense; all C 5-methyl, all phosphorothioate, sugars by position not given here; MOE gapmer, 5-10-5) [ISIS 412224, 5-10-5 MOE gapmer] | 10 | 1.6 | 6 | 0.5 | 214 | 183 | 3.4 | 0.19 | 114 | 29 | 50 | 15 | 6284 | 195 | 2107 | 647 10^3/μL | 10 10^6/μL | 9 10^3/μL | 165 | 1.0 | Liver weight [5]: 5%; Spleen weight [5]: 0.5%; ALT [6]: 84 IU/L; AST [6]: 132 IU/L; Albumin [6]: 4; Bilirubin [6]: 0.12 mg/dL; creatinine [7]: 44 mg/dL; BUN [7]: 24 mg/dL; Total urine protein [7]: 171 mg/dL; Urine protein/creatinine ratio [7]: 3.8; HCT [8]: 42%; Hemoglobin [8]: 13.4 g/dL; Lymphocyte [8]: 16807; Neutrophil [8]: 1865; Platelets [8]: 685; RBC [8]: 7.4; WBC [8]: 20 |
| GGACGGCATTGGTGCACAGT (antisense; all C 5-methyl, all phosphorothioate, sugars by position not given here; MOE gapmer, 5-10-5) [ISIS 413482, 5-10-5 MOE gapmer] | 11 | 1.6 | 6 | 0.5 | 54 | 77 | 3.0 | 0.24 | 138 | 27 | 50 | 15 | 5584 | 275 | 1958 | 818 10^3/μL | 10 10^6/μL | 8 10^3/μL | 158 | 1.0 | Liver weight [5]: 5%; Spleen weight [5]: 0.6%; ALT [6]: 59 IU/L; AST [6]: 157 IU/L; Albumin [6]: 4; Bilirubin [6]: 0.14 mg/dL; creatinine [7]: 34 mg/dL; BUN [7]: 23 mg/dL; Total urine protein [7]: 157 mg/dL; Urine protein/creatinine ratio [7]: 4.8; HCT [8]: 40%; Hemoglobin [8]: 13.2 g/dL; Lymphocyte [8]: 11430; Neutrophil [8]: 1125; Platelets [8]: 641; RBC [8]: 7.1; WBC [8]: 13 |
| GGTGCACAGTTTCTGGCAGG (all C 5-methyl, all phosphorothioate, sugars by position not given here; MOE gapmer) [ISIS 413481, 5-10-5 MOE gapmer] | 9 | 1.5 | 6 | 0.5 | 85 | 143 | 3.2 | 0.18 | 153 | 23 | 45 | 13 | 4329 | 204 | 1904 | 841 10^3/μL | 9 10^6/μL | 7 10^3/μL | 147 | 0.9 | Liver weight [5]: 5%; Spleen weight [5]: 0.3%; ALT [6]: 54 IU/L; AST [6]: 80 IU/L; Albumin [6]: 4; Bilirubin [6]: 0.22 mg/dL; creatinine [7]: 45 mg/dL; BUN [7]: 26 mg/dL; Total urine protein [7]: 148 mg/dL; Urine protein/creatinine ratio [7]: 3.6; HCT [8]: 43%; Hemoglobin [8]: 14.2 g/dL; Lymphocyte [8]: 12707; Neutrophil [8]: 1046; Platelets [8]: 552; RBC [8]: 7.5; WBC [8]: 14 |
